This test has as its system MCF7 multi-cell spheroids with HUVEC/MSC, viability. In words: Anticancer human tumor MCF7 cell line growth inhibition [IpAb].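 For all read-outs here: spheroids exposed to agents for seven days before readout.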 Conditions: for viability, T/C: stronger effect = lower value. An excerpt:
Combinatorial screen of targeted agents with ipatasertib and abemaciclib in multi-cell type tumor spheroids
A high-throughput screen of multi-cell type tumor spheroids was designed to identify active combinations of targeted small molecules and ipatasertib or abemaciclib. Complex spheroids include a stromal component modeled by human endothelial cells (HUVEC) and fibroblasts modeled by human mesenchymal stem cells (MSCs). The concentration ranges selected for each drug and investigational agent were based upon clinically achievable concentrations if the clinical Cmax of the agent was known.
Compounds. The drugs and investigational agents: ipatasertib (NSC767898), abemaciclib(NSC768073), selumetinib (NSC741078), trametinib (758246), adavosertib (NSC754352), everolimus (NSC733504), sapanisertib (NSC764658), vemurafenib (NSC761431), venetoclax (NSC766270), copanlisib (NSC809693), apelisib (NSC765974), palbociblib (NSC758247), vemurafenib (NSC761431), dabrafenib (NSC764134), ravoxertinib (NSC781343), BMS-387032 (NSC767048), sotorasib (NSC818433), talazoparib (NSC767125) and afursertib (NSC778305), were obtained from the National Cancer Institute (NCI) Developmental Therapeutics Program Chemical Repository. The FDA-approved anticancer drug set is available from the NCI Developmental Therapeutics Program. […] The stock solutions were prepared in dimethyl sulfoxide (DMSO, Sigma-Aldrich, St. Louis, MO, cat. D2650) at 800-fold the tested concentration and stored at -70 degrees C prior to their use. All drugs and investigational agents were tested over a range starting from a high concentration at or near the clinical Cmax and decreasing in half-log increments. If the clinical Cmax for an agent had not been determined, the highest concentration tested was 10 microM.
NCI60 Cell Culture. NCI60 cell lines were obtained from the NCI Developmental Therapeutics Program Tumor Repository. For each lot of cells, the Repository performed Applied Biosystems AmpFLSTR Identifiler testing with PCR amplification to confirm consistency with the published Identifier STR profile for each cell line. Cells were kept in continuous culture for no more than 20 passages. The optimal seeding densities for each of the cell lines at each time point assessed were determined prior to performing the concentration response studies. Briefly, the NCI60 human tumor lines were grown as monolayers in RPMI 1640 medium supplemented with 10% FBS and 2 mmol/L L-glutamine.
An additional 9 lines were from the NCI60 cell line panel including MDA-MB-231 breast carcinoma, MDA-MB-468 breast carcinoma, MCF7 breast carcinoma, Hs578T breast carcinoma, MALME-3M melanoma, SK-MEL-2 melanoma, SK-OV-3 ovarian carcinoma, DU-145 prostate carcinoma, PC-3 prostate carcinoma, all cell lines along with major genetic alterations are listed on Table 2. Pooled donor human umbilical vein endothelial cells (HUVEC, Lonza, cat. CC-2519) and human mesenchymal stem cells (hMSC, Lonza, cat. PT-2501) were purchased from Lonza (Walkersville, MD).
PDMR cell lines were grown in complete medium (DC medium): Dulbecco's modified Eagle's medium (DMEM)/F12 supplemented with 5% fetal bovine serum (FBS), 2 mM L-glutamine, 100 U/mL penicillin and 100 µg/ml streptomycin, 0.4 µg/ml hydrocortisone, 10 ng/ml epidermal growth factor (EGF) recombinant human protein, 24 µg/mL adenine, and 0.1 mg/mL primocin. During culture from frozen stock vials, PDMR cells were cultured in the same medium containing 10 µM Y-27632 (see Table 3). The PDCs were cultured in complete DMEM/F12 media without 10 microM Y-27632 dihydrochloride for at least two passages prior to the screen. The pooled donor HUVEC and hMSC were cultured in endothelial cell growth medium 2 (PromoCell, Heidelberg, Germany, cat. C-22011) and mesenchymal stem cell growth medium 2 (PromoCell, cat. C-28009), respectively. For all experiments, HUVEC and hMSC were used at passages </=5.
[…]

Where [1] appears, read: curve of first compound, second compound 0.01 µM.
Setting [2] is: curve of first compound, second compound 0.0316 µM.
Where [3] appears, read: curve of first compound, second compound 0.1 µM.
The mark [4] stands for this setting: curve of first compound, second compound 0.316 µM.
Setting [5] is: curve of first compound, second compound 1 µM.

The structures appear in SMILES notation. Values joined by “and” are separate entries in the source; they are usually repeats but may differ in a detail not shown here. Identical values can stand only once. A value given as a limit tells only on which side of the number the result lay.

Usually IC50 stands for the midpoint of a concentration-inhibition curve. In general, viability, T/C refers to the ratio of treated to control.

Consider `COc1c(OCCCN2CCOCC2)ccc2c3n(c(=NC(=O)c4cnc(N)nc4)nc12)CCN3` + CCN1CCN(Cc2ccc(Nc3ncc(F)c(-c4cc(F)c5nc(C)n(C(C)C)c5c4)n3)nc2)CC1, for which the IC50 reads like this: under setting [1], 42.3 nM; under setting [2], 29.8 nM; under setting [3], 29.7 nM; under setting [4], 42 nM; under setting [5], 57.1 nM. Besides, the viability, T/C (second compound 0.01 µM, first compound 0.00316 µM) was 101%; the viability, T/C (second compound 0.01 µM, first compound 0.01 µM) was 79.7%; the viability, T/C (second compound 0.01 µM, first compound 0.0316 µM) is 61.3%; the viability, T/C (second compound 0.01 µM, first compound 0.1 µM) is 27.7%; the viability, T/C (second compound 0.01 µM, first compound 0.316 µM) is 9.2%; the viability, T/C (second compound 0.01 µM, first compound 1 µM) was 11.6%. Also, the viability, T/C by setting is: (second compound 0.0316 µM, first compound 0.00316 µM) 91.2%; (second compound 0.0316 µM, first compound 0.01 µM) 82.2%; (second compound 0.0316 µM, first compound 0.0316 µM) 46.5%; (second compound 0.0316 µM, first compound 0.1 µM) 22.8%; (second compound 0.0316 µM, first compound 0.316 µM) 7.69%; (second compound 0.0316 µM, first compound 1 µM) 11.1%. Further, the viability, T/C reads like this: (second compound 0.1 µM, first compound 0.00316 µM) 99.2%; (second compound 0.1 µM, first compound 0.01 µM) 78.8%; (second compound 0.1 µM, first compound 0.0316 µM) 48.9%; (second compound 0.1 µM, first compound 0.1 µM) 23.4%; (second compound 0.1 µM, first compound 0.316 µM) 8.37%; (second compound 0.1 µM, first compound 1 µM) 9.47%. Moreover, the viability, T/C is, setting by setting: (second compound 0.316 µM, first compound 0.00316 µM) 93.1%; (second compound 0.316 µM, first compound 0.01 µM) 73.5%; (second compound 0.316 µM, first compound 0.0316 µM) 56.5%; (second compound 0.316 µM, first compound 0.1 µM) 36.5%; (second compound 0.316 µM, first compound 0.316 µM) 17.9%; (second compound 0.316 µM, first compound 1 µM) 15%. Also, the viability, T/C reads like this: (second compound 1 µM, first compound 0.00316 µM) 94%; (second compound 1 µM, first compound 0.01 µM) 66.7%; (second compound 1 µM, first compound 0.0316 µM) 59%; (second compound 1 µM, first compound 0.1 µM) 41%; (second compound 1 µM, first compound 0.316 µM) 36.6%; (second compound 1 µM, first compound 1 µM) 18%.
On to `CC(C)n1nc(-c2ccc3oc(N)nc3c2)c2c(N)ncnc21`, for which the viability, T/C runs as follows: (compound 0.000316 µM) 98.9% and 88.3%; (compound 0.001 µM) 86.4% and 81.6%; (compound 0.00316 µM) 80.8% and 82.8%; (compound 0.01 µM) 73.5% and 65.5%; (compound 0.0316 µM) 42.5% and 29.7%; (compound 0.1 µM) 25% and 22.1%. For the setting “curve of compound”, the IC50 was 25.9 nM and 16.4 nM.
Consider `CC(=O)c1c(C)c2cnc(Nc3ccc(N4CCNCC4)cn3)nc2n(C2CCCC2)c1=O` + CCN1CCN(Cc2ccc(Nc3ncc(F)c(-c4cc(F)c5nc(C)n(C(C)C)c5c4)n3)nc2)CC1, for which the IC50 was greater than 300 nM under setting [1]; greater than 300 nM under setting [2]; greater than 300 nM under setting [3]; greater than 300 nM under setting [4]; greater than 300 nM under setting [5]. Moreover, the viability, T/C (second compound 0.01 µM, first compound 0.000949 µM) was 93.2%; the viability, T/C (second compound 0.01 µM, first compound 0.003 µM) was 99.5%; the viability, T/C (second compound 0.01 µM, first compound 0.00949 µM) was 103%; the viability, T/C (second compound 0.01 µM, first compound 0.03 µM) is 104%; the viability, T/C (second compound 0.01 µM, first compound 0.0949 µM) was 97.4%; the viability, T/C (second compound 0.01 µM, first compound 0.3 µM) is 93.6%. The viability, T/C by setting is: (second compound 0.0316 µM, first compound 0.000949 µM) 101%; (second compound 0.0316 µM, first compound 0.003 µM) 95.4%; (second compound 0.0316 µM, first compound 0.00949 µM) 90.6%; (second compound 0.0316 µM, first compound 0.03 µM) 93.3%; (second compound 0.0316 µM, first compound 0.0949 µM) 93%; (second compound 0.0316 µM, first compound 0.3 µM) 94.1%. The viability, T/C is 93.9% (second compound 0.1 µM, first compound 0.000949 µM); 104% (second compound 0.1 µM, first compound 0.003 µM); 88.3% (second compound 0.1 µM, first compound 0.00949 µM); 99.3% (second compound 0.1 µM, first compound 0.03 µM); 92.8% (second compound 0.1 µM, first compound 0.0949 µM); 86.7% (second compound 0.1 µM, first compound 0.3 µM). Further, the viability, T/C by setting is: (second compound 0.316 µM, first compound 0.000949 µM) 95%; (second compound 0.316 µM, first compound 0.003 µM) 90.9%; (second compound 0.316 µM, first compound 0.00949 µM) 96.6%; (second compound 0.316 µM, first compound 0.03 µM) 92.1%; (second compound 0.316 µM, first compound 0.0949 µM) 97%; (second compound 0.316 µM, first compound 0.3 µM) 85.5%. Moreover, the viability, T/C (second compound 1 µM, first compound 0.000949 µM) is 82.7%; the viability, T/C (second compound 1 µM, first compound 0.003 µM) was 94.5%; the viability, T/C (second compound 1 µM, first compound 0.00949 µM) is 79.8%; the viability, T/C (second compound 1 µM, first compound 0.03 µM) was 79.8%; the viability, T/C (second compound 1 µM, first compound 0.0949 µM) is 87.1%; the viability, T/C (second compound 1 µM, first compound 0.3 µM) was 92.2%.
Regarding `Cn1cnc2c(F)c(Nc3ccc(Br)cc3Cl)c(C(=O)NOCCO)cc21`, the viability, T/C was 97.5% and 94.6% (compound 0.00949 µM); 102% and 98% (compound 0.03 µM); 105% and 97.7% (compound 0.0949 µM); 103% and 116% (compound 0.3 µM); 107% and 102% (compound 0.949 µM); 111% and 109% (compound 3 µM). Moreover, the IC50 (curve of compound) is greater than 3000 nM.

These data come from PubChem BioAssay AID2060329 (Molecular Pharmacology Branch, DTP, NCI, 2025).
